The record followed here is patent US6048862A, “Benzylamidine derivatives with serotonin receptor binding activity” (Virginia Commonwealth University, priority 1999, dated 2000).

Structures are written as SMILES. Counter-ions that a name gives are not always drawn. Like-named read-outs stand apart in the source and are kept apart here.

The target of experiment [1] is 5-HT1Dα (Homo sapiens, UniProt P28221). Briefly: biochemical. It is filed as binding. The conditions noted are these: for 5-HT1Dβ / 5-HT1Dα: ratio of Ki values, selectivity for 5-HT1Dα over 5-HT1Dβ. As to the method:
(§1) Compounds of the previous examples, as well as reference compounds were evaluated for binding affinity using cell types receptive specifically to 5-HT1Dα and 5-HT1Dβ ligands. The assay protocol generally entailed the incubation of membranes prepared from cells expressing the 5-HT1Dα or 5-HT1Dβ subtype of 5-HT receptors with ^3 H-serotonin. Increasing concentrations of the test compound were incubated with the radioligand and the membrane homogenates prepared from the recombinant cells. After a 60 minute incubation at 22° C., the incubation was terminated by vacuum filtration. The filters were washed with buffer and counted for radioactivity using liquid scintillation spectroscopy. The affinity of the test compound for the 5-HT1Dα or 5-HT1Dβ receptor was determined by computer-assisted analysis of the data and by determining the amount of compound necessary to inhibit 50% of the binding of the radioligand to the receptor. Concentrations ranging from 10^-11 M to 10^- 5 M of the test compound were evaluated.

Experiment [2] has as its target 5-HT1Dβ (Homo sapiens, UniProt P28222). Briefly: Binding affinity, 3H-serotonin displacement, membranes of recombinant cells expressing 5-HT1Dβ. The method, then:
as §1

For experiment [3], the target named is T1, 5-HT1D receptor (Oryctolagus cuniculus, UniProt P49144).
T1 construct: Ring segments of the vein (4-5 mm in length) were cut and the endothelium gently removed; from tissue; host or cells: saphenous vein rings, endothelium removed, male New Zealand White rabbit
T1 sequence (P49144 whole entry): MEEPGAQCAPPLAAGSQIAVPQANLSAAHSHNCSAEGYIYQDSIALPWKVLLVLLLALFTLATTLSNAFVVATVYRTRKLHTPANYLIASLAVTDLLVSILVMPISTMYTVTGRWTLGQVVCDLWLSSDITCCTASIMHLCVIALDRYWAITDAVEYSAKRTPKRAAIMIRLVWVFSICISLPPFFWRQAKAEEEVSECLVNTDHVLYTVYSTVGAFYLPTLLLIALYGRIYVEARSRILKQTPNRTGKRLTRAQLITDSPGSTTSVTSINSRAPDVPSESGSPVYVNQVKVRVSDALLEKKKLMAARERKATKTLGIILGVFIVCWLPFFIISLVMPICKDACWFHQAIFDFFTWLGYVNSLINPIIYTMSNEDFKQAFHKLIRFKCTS
Put plainly: 5-HT1D receptor agonist assay: contraction of isolated rabbit saphenous vein. It is filed as cell-based. As to the method: The saphenous veins from both the left and right side were cleaned of fat and connective tissue and placed in Krebs solution (118 mM NaCl, 11 mM glucose, 25 mM NaHCO3, 4.7 mM KCl, 2.5 mM CaCl2. 2H2 O, 1.2 mM KH2 PO4, and 1.2 mM MgSO4. 7H2 O. Ring segments of the vein (4-5 mm in length) were cut and the endothelium gently removed. The segments were mounted in 10 mL baths containing Krebs buffer and were constantly aerated with 95% oxygen/5% carbon dioxide and maintained at 37° C. and pH 7.4 in order to record the isometric tension. A resting tension of 2.5 g was applied and the tissues allowed to equilibrate for 90 minutes, with washing every 15-20 minutes. After the equilibrium period, the rings were depolarized by the addition of two aliquots of KCl (80 mM final concentration) separated by a 20 minute washing period. The tissues were then exposed to prazosin, idazoxan and indomethacin (all 1 μM final concentration) for 30 minutes in order to exclude the actions of α1 - and α2 -adrenergic receptors and prostaglandin receptors respectively. […] Responses were calculated as a percentage of the maximal contraction evoked by 80 mM KCl. Only one compound was tested per preparation.
EC50 represents the concentration of the compound which causes 50% of the maximum contraction effected by it. If the compound included a maximum contraction of less than 60% of that of KCl (80 mM), it was considered a partial agonist.

[4] abbreviates: 3H-serotonin radioligand, 60 minute incubation at 22° C., read-out: 5-HT1Dα Kl.
The mark [5] stands for this setting: 3H-serotonin radioligand, 60 minute incubation at 22° C., read-out: 5-HT1Dβ Kl.
The mark [6] stands for this setting: rabbit isolated saphenous vein, prazosin, idazoxan and indomethacin (1 μM) present, 50% of the compound's own maximum contraction, 37° C., pH 7.4, read-out: EC50.

5-HT1Dα, sequence (P28221 whole entry): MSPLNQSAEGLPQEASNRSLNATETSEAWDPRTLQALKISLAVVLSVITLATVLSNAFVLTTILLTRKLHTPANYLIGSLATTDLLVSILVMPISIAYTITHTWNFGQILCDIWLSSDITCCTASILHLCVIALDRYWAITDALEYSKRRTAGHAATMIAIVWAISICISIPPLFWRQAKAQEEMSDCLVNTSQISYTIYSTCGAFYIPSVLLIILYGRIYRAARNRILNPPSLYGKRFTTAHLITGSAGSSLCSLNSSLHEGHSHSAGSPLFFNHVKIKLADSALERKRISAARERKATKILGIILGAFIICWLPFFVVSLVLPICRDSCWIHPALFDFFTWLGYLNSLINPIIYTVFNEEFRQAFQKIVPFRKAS
5-HT1Dβ, sequence (P28222 whole entry): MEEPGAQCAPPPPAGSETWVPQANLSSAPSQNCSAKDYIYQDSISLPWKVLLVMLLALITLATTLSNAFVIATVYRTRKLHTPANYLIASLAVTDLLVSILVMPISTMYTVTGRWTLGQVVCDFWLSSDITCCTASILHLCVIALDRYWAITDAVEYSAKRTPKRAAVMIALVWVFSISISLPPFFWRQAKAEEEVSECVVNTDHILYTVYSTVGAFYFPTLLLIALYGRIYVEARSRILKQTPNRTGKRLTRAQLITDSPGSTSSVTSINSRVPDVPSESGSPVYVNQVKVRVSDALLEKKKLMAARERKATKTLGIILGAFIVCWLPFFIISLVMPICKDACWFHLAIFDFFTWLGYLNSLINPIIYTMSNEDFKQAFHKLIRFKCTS

With `CC(C)c1ccc(CC2=NCCN2)cc1.Cl` [Example 5a, 4,5-Dihydro-2-[(4-isopropylphenyl)methyl]-1H-imidazole Hydrochloride], the Ki came out at 340 nM in experiment [1] (setting [4]) and 2780 nM in experiment [2] (setting [5]). Besides, the “5-HT1Dβ / 5-HT1Dα” value in experiment [1] is 8.

In the case of `CC(C)(C)c1ccc(CC2=NCCN2)cc1` [Example 5b, 2-[(4-t-Butyphenyl)methyl]-4,5-dihydro-1H-imidazole hydrochloride], the Ki in experiment [1] (setting [4]) was 105 nM; in experiment [2] (setting [5]), more than 10000 nM. Also, the “5-HT1Dβ / 5-HT1Dα” value in experiment [1] is more than 95.

On to `Cc1cc(C(C)(C)C)cc(C)c1CC1=NCCN1` [Example 5c, 2-[(4-t-Butyl-2,6-dimethylphenyl)methyl]-4,5-dihydro-1H-imidazole hydrochloride], for which the Ki in experiment [2] worked out at 14.9 nM.

As for `Cc1cc(Br)cc(C)c1CC1=NCCN1.Cl` [Example 5d, 2-[(4-Bromo-2,6-dimethylphenyl)methyl]-4,5-dihydro-1H-imidazole hydrochloride], the Ki in experiment [1] (setting [4]) is 74 nM; in experiment [2] (setting [5]), 1570 nM. For the same compound, in experiment [1], the “5-HT1Dβ / 5-HT1Dα” value is given as 21.

For `Cc1cc(C)c(CC2=NCCN2)c(C)c1.Cl` [Example 5e, 4,5-Dihydro-2-[(2,4,6-trimethylphenyl)methyl]-1H-imidazole hydrochloride], the Ki in experiment [1] stood at 92 nM; in experiment [2] (setting [5]), 3480 nM. The “5-HT1Dβ / 5-HT1Dα” value in experiment [1] is reported as 20.

As to `Cc1cc(C(C)C)cc(C)c1CC1=NCCN1.Cl` [Example 5f, 4,5-Dihydro-2-[(2,6-dimethyl-4-isopropylphenyl)methyl]-1H-imidazole hydrochloride], the Ki in experiment [1] turned out to be 1.6 nM; in experiment [2] (setting [5]), 37 nM. Besides, in experiment [1], the “5-HT1Dβ / 5-HT1Dα” value amounted to 23.

In the case of `Cl.c1ccc2cc(CC3=NCCN3)ccc2c1` [Example 5g, 4,5-Dihydro-2-(2-naphthalenylmethyl)-1H-imidazole hydrochloride], the Ki is 135 nM in experiment [1] and 1160 nM in experiment [2]. Moreover, in experiment [1], the “5-HT1Dβ / 5-HT1Dα” value was 9.

Turning to `Cc1cc(C(C)(C)C)cc(C)c1CC1=NCCN1Cc1ccccc1.Cl` [Example 5i, 2-[(4-t-Butyl-2,6-dimethylphenyl)methyl]-1-benzyl-4,5-dihydroimidazole hydrochloride], the values for the Ki in experiment [1] (setting [4]) and in experiment [2] (setting [5]) were 30 nM and 1860 nM, respectively. For the same compound, in experiment [1], the “5-HT1Dβ / 5-HT1Dα” value is reported as 62.

Turning to `Cc1cc(C(C)(C)C)cc(C)c1CC1=NCCCN1.Cl` [Example 5j, 2-(4-t-Butyl-2,6-dimethylbenzyl)-1,4,5,6-tetrahydropyrimidine hydrochloride], the values for the Ki in experiment [1] (setting [4]) and in experiment [2] (setting [5]) were 35 nM and more than 5000 nM, respectively. The “5-HT1Dβ / 5-HT1Dα” value in experiment [1] was more than 143.

`Cc1cc(C(C)(C)C)ccc1CC1=NCCN1.Cl` [Example 5k, 2-[(4-t-Butyl-2-methylphenyl)methyl]-4,5-dihydro-1H-imidazole hydrochloride]: the values for the Ki in experiment [1] (setting [4]) and in experiment [2] (setting [5]) were 6.8 nM and 712 nM, respectively. The “5-HT1Dβ / 5-HT1Dα” value in experiment [1] worked out at 105.

With `Cc1cc(C(C)(C)C)cc(C)c1CC(=N)N` [Example 6, 4-t-Butyl-2,6-dimethylbenzeneethanimidamide], the Ki in experiment [1] (setting [4]) is 13 nM; in experiment [2] (setting [5]), 600 nM. For the same compound, in experiment [1], the “5-HT1Dβ / 5-HT1Dα” value stood at 46.

As for `CC(C)(C)c1ccc(CC2=NCCN2)cc1` [drawing 22], the concentration for a half-maximal effect (EC50) in experiment [3] (setting [6]) came out at 2900 nM.

Regarding `Cc1cc(C)c(CC2=NCCN2)c(C)c1` [drawing 23], the EC50 in experiment [3] turned out to be 100 nM.

With `Cc1cc(C(C)(C)C)cc(C)c1CC(=N)N` [drawing 24], the EC50 in experiment [3] (setting [6]) stood at 23 nM.

Turning to `Cc1cc(C(C)(C)C)c(O)c(C)c1CC1=NCCN1` [oxymetazoline, reference compound], the Ki in experiment [2] (setting [5]) turned out to be 0.33 nM.

Broadly, the EC50 is the concentration needed to bring the measured effect to its halfway point.
